Experiments:
rodent GSK3β homologs = conditions: cited from earlier work
hESC = experiment: Immunocytochemistry, percentage of marker positive cells in differentiating cultures; assay type: cell-based, human
Procedure: (§1) Immunohistochemistry: Cells were fixed in 4% PFA and blocked with 1% bovine serum albumin (BSA) with 0.3% Triton. Brain tissue sections were washed in cold PBS and processed similarly. Primary antibodies were diluted in 1-5% BSA or Normal Goat Serum and incubated according to manufacturer recommendations. A comprehensive list of antibodies and sources is provided as Table 6. Appropriate Alexa488, Alexa555 and Alexa647-conjugated secondary antibodies (Molecular Probes, Carlsbad, California) were used with 4′,6-diamidino-2-phenylindole (DAPI) nuclear counterstain (Thermo Fisher, Rockford, Illinois). For some analyses biotinylated secondary antibodies were used followed by visualization via DAB (3,3′-Diaminobenzidine) chromogen.
Cell Counts and Stereological Analyses. The percentages of marker positive cells at the floor plate (day 11) FIG. 1, midbrain dopamine neuron precursor (day 25), FIG. 2 and mature DA neuron stages (day 50 or later) FIGS. 3 and 11, were determined in samples derived from at least 3 independent experiments each. Images for quantification were selected in a uniform random manner and each image was scored first for the number of DAPI-positive nuclei, followed by counting the number of cells expressing the marker of interest. Data are presented as mean±SEM. Quantification of human cells (identified with anti-hNA) and TH+ neurons within grafts was performed on every tenth section where a graft was identifiable. Cell counts and graft volume was determined using the optical fractionator's probe and the Cavalieri estimator using the Stereo Investigator software (MBF bioscience, Vermont) as described previously in Tabar, et al. Nat. Biotechnol. 23:601-606 (2005), herein incorporated by reference. Data are presented as estimated total cell number and total graft volume+/−standard error of means (SEM).
as §1, with “chromogen. HPLC” for “chromogen.”
Analysis. Reversed-phase HPLC with electrochemical detection for measuring levels of dopamine, Homovanillic acid (HVA) and DOPAC (3,4-Dihydroxy-Phenylacetic Acid) was performed as described previously (Roy, et al. Nature Med. 12:1259-1268 (2006); Studer, et al. Brain Res. Bull. 41:143-150 (1996), all of which are herein incorporated by reference). Culture samples were collected in perchloric acid at day 65 of differentiation. For some experiments DA was measured directly in the medium using the same detection system but following aluminum extraction of dopamine and its metabolites using a commercially available kit as described previously (Studer, et al. Brain Res. Bull. 41:143-150 (1996), herein incorporated by reference). […]

rosette stage cells = experiment: Rosette-based DA neuron induction culture; assay type: cell-based, human; conditions: concentration suitable for patterning floor plate cells
Excerpt: Both protocols used dual-SMAD inhibition to accelerate neural fate acquisition. LDN was used for BMP inhibition in the floor plate protocol while the traditional noggin induction was used for rosette cultures. The abbreviations are: LDN: LDN-193189, SB: SB431542, SHH (purmorphamine+SHH C25II), FGF8: FGF8, BAGCT: BDNF+ascorbic acid+GDNF+dbcAMP+TGFβ3. SHH/FGF8 in the rosette protocol used SHH C25I alone in the absence of purmorphamine following the initial recommendation for patterning of rosette-derived DA neuron cultures. […] BASF: BDNF+ascorbic acid+SHH/FGF8.
For rosette-based DA neuron induction previously described protocols were followed in part (Perrier, et al. Proc Natl Acad Sci USA 101:12543-8 (2004), herein incoropoated by reference) with at least one exception where dual-SMAD inhibition was used to accelerate the initial neural induction step. In brief, hESCs were induced towards neural fate by coculture with irradiated MS5 cells in KSR supplemented with SB431542 and Noggin (250 ng/ml (ranging in concentration from 10-1000 ng/ml); R&D), from day 2-8 and SHH+FGF8 from day 6-11 of differentiation. After 11 days in KSR, neural rosettes were manually isolated and cultured (P1 stage) in N2 medium supplemented with SHH, FGF8, BDNF and AA as described previously (Perrier, et al. Proc Natl Acad Sci USA 101:12543-8 (2004), herein incorporated by reference). […]

[1] = test system: control-iPSC derived TH+ DA neurons; experiment: Toxin challenge, TH immunocytochemistry; assay type: cell-based, human; conditions: 5 uM, 48 hr, floor-plate protocol, day 60
Procedure: (§2) PD-iPSC derived TH+ DA neurons derived via the floor-plate based protocols of the present inventions were more vulnerable to toxin challenge (valinomycin: mitochondria ionophore, 5 uM, 48 hr) than control-iPSC derived cells. […] G-H) low power images of immunocytochemistry for Tuj1 (red) and TH (green) by floor-plate based protocol at day 60 of differentiation: PD-iPSC of normal (G), versus toxin challenge (H) conditions and control iPSC of normal (I), versus toxin challenge (J) conditions. K-N) low power images of immunocytochemistry for Tuj1 (red) and TH (green) by MS5 based protocol at day 60 of differentiation: PD-iPSC of normal (K), versus toxin challenge (L) conditions and control iPSC of normal (M), versus toxin challenge (N) conditions.
(§3) E. DA neurons derived from genetic PD-iPS cells are more vulnerable to toxic stimulation. FIG. 24-25. PD-iPSC derived TH+DA neurons derived via floor-plate based protocol were more vulnerable to toxin challenge (valinomycin: mitochondria ionophore, 5 uM (ranging in concentration from 1-10 uM), 48 hr) than control-iPSC derived cells. […] Normal condition both of PD- and control-iPSC derived cultures obtained via MS5 based protocol (D, PD-iPSC derived cells shown), TH+ neurons following toxin challenge in PD-iPSC (E), and control-iPSC derived cultures (F) obtained via MS5 protocol. G-H) low power images of immunocytochemistry for Tuj1 (red) and TH (green) by floor-plate based protocol at day 60 of differentiation: PD-iPSC of normal (G), versus toxin challenge (H) conditions and control iPSC of normal (I), versus toxin challenge (J) conditions. K-N) low power images of immunocytochemistry for Tuj1 (red) and TH (green) by MS5 based protocol at day 60 of differentiation: PD-iPSC of normal (K), versus toxin challenge (L) conditions and control iPSC of normal (M), versus toxin challenge (N) conditions. F.
(§4) Exemplary DA neurons derived from PINK1 mutant PD-iPSC are more vulnerable to toxic stimulation. […]

[2] = test system: PINK1 mutant PD-iPSC derived TH+ DA neurons; experiment: Toxin challenge, TH immunocytochemistry; assay type: cell-based, human
Procedure: as §2, §3, §4

[3] = test system: PD-iPSC and control iPSC derived cells; experiment: Cell viability assay with alamar-blue, dose response for toxin challenge; assay type: cell-based, human; conditions: 48 hrs, 5 and 10 uM, day 60
Excerpt: (§5) Note: this assay tests for overall cell death while the most dramatic effects were observed specifically in DA neurons (see FIG. 14). Therefore, alamar blue based quantification will likely underestimate the extent of the differential effect observed on DA neuron lineages.
as §5, with “Exemplary quantification of cell viability—dose response assay for toxin challenge. […] Note:” for “Note:”
as §5, with “Exemplary quantification of cell viability-dose response assay for toxin challenge. […] Note:” for “Note:”

## Cc1c[nH]c(-c2cnc(NCCNc3ccc(C#N)cn3)nc2-c2ccc(Cl)cc2Cl)n1 [CHIR99021, 6-(2-(4-(2,4-dichlorophenyl)-5-(4-methyl-1H-imidazol-2-yl)pyrimidin-2-ylamino)ethylamino)nicotinonitrile]
Rodent GSK3β homologs
  IC50 against rodent GSK3β homologs: nanomolar
hESC
  potency at inducing LMX1A expression compared with recombinant Wnt3A or Wnt1: more potent
  timing of exposure giving maximum LMX1A induction: day 3-11
hESC; day 11
  LMX1A induction in FOXA2+ floor plate precursors: induced LMX1A
  co-expression of FOXA2/LMX1A: induced co-expression

## c1ccc2c(Oc3nc(Nc4ccc(N5CCOCC5)cc4)c4ncn(C5CCCCC5)c4n3)cccc2c1 [Purmorphamine]
Rosette stage cells
  toxicity at rosette stage: shows toxicity

## CC(C)[C@@H]1NC(=O)[C@H](C)OC(=O)[C@@H](C(C)C)NC(=O)[C@@H](C(C)C)OC(=O)[C@H](C(C)C)NC(=O)[C@H](C)OC(=O)[C@@H](C(C)C)NC(=O)[C@@H](C(C)C)OC(=O)[C@H](C(C)C)NC(=O)[C@H](C)OC(=O)[C@@H](C(C)C)NC(=O)[C@@H](C(C)C)OC1=O [valinomycin]
[1]
  degeneration of TH+ DA neurons: partially degenerated
[2]; 5 uM, 48 hr, floor-plate protocol, day 60
  degeneration of TH+ DA neurons: nearly complete degeneration
[2]; classic MS5 based protocol
  vulnerability of PD- versus control-derived TH+ neurons: did not show differential vulnerability
[3]
  cell survival PD-iPSC versus control iPSC: differential cell survival

B1: FGF8: Fibroblast growth factor 8 (protein, UniProt P55075 23-233, looked up)
Fibroblast growth factor 8: QEGPGRGPALGRELASLFRAGREPQGVSQQHVREQSLVTDQLSRRLIRTYQLYSRTSGKHVQVLANKRINAMAEDGDPFAKLIVETDTFGSRVRVRGAETGLYICMNKKGKLIAKSNGKGKDCVFTEIVLENNYTALQNAKYEGWYMAFTRKGRPRKGSKTRQHQREVHFMKRLPRGHHTTEQSLRFEFLNYPPFTRSLRGSQRTWAPEPR
hESC; day 11
  co-expression of FOXA2/LMX1A: only marginal effects

Source: US11970712B2, “Midbrain dopamine (DA) neurons for engraftment” (MEMORIAL SLOAN-KETTERING CANCER CENTER, priority 2011, dated 2024)
